Source: ChEMBL document CHEMBL1149309, “Potent, selective and low-calcemic inhibitors of CYP24 hydroxylase: 24-sulfoximine analogues of the hormone 1alpha,25-dihydroxyvitamin D(3)” (J Med Chem, 2004)

Assays:
[1] = molecular target: T1, 1,25-dihydroxyvitamin D(3) 24-hydroxylase, mitochondrial (Homo sapiens, UniProt Q07973); experiment: Inhibition of human CYP24 hydroxylase expressed in V79 cells; format: cell-based
T1 sequence (Q07973 whole entry): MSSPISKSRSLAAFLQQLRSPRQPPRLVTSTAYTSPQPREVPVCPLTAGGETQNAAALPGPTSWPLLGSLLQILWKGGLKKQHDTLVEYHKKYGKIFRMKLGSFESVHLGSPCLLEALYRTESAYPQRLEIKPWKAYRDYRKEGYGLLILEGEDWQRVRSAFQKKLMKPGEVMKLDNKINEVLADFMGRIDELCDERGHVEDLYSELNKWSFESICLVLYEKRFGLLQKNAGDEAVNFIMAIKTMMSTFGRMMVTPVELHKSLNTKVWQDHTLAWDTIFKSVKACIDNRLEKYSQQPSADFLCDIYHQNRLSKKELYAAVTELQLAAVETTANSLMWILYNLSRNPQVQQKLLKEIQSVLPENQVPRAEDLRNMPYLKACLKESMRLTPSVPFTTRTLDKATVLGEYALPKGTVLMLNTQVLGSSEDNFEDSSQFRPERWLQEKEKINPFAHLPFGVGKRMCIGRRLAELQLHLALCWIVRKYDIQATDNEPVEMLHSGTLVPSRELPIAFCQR

[2] = molecular target: T2, 25-hydroxyvitamin D-1 alpha hydroxylase, mitochondrial (Homo sapiens, UniProt O15528); experiment: Inhibition of human CYP27B hydroxylase expressed in SW900 cells; format: cell-based
T2 sequence (O15528 whole entry): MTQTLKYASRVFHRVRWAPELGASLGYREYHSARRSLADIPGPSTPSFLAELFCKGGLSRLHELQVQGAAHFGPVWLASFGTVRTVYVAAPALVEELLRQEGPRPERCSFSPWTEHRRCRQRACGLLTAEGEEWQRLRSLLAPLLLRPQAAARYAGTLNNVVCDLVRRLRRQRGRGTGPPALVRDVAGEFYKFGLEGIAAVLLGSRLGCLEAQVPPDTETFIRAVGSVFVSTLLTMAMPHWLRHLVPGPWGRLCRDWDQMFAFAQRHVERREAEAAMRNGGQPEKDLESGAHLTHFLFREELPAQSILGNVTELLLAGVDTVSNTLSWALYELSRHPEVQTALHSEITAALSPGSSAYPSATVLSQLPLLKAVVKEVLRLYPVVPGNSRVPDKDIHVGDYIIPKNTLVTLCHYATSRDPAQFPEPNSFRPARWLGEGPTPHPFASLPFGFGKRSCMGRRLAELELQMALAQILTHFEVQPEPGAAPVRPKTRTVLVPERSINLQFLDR

[3] = molecular target: T3, Vitamin D3 receptor (Homo sapiens) (UniProt P11473); details: CV-1
T3 sequence (whole entry): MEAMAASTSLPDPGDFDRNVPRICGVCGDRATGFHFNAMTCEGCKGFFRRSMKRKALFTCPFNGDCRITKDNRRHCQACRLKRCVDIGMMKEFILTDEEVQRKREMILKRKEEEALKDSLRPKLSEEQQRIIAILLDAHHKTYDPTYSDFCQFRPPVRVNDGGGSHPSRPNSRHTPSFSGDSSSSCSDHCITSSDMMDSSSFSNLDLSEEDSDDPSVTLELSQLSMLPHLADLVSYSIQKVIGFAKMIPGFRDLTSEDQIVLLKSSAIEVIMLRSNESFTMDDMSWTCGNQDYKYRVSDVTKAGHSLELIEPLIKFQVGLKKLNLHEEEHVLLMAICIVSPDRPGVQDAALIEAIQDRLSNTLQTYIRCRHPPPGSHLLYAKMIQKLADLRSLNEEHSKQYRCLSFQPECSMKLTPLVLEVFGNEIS
Description: Effect on VDR-mediated transcriptional activity in CV1 cells transfected with human recombinant VDR

| Compound | IC50 [1] | IC50 [2] | ED50 [3] |
| --- | --- | --- | --- |
| C=C1/C(=C\C=C2/CCC[C@]3(C)[C@@H]([C@H](C)/C=C(\F)[S+](=N)([O-])c4ccccc4)CC[C@@H]23)C[C@@H](O)C[C@@H]1O (stereo partly drawn) | > 1000 nM |  |  |
| C=C1/C(=C\C=C2/CCC[C@]3(C)[C@@H]([C@H](C)CCS(=N)(=O)c4ccccc4)CC[C@@H]23)C[C@@H](O)C[C@@H]1O (stereo in doubt; 3a) [listing 2 of 2 here] |  |  | > 1000 nM |
| C=C1/C(=C\C=C2/CCC[C@]3(C)[C@@H]([C@H](C)CCS(=N)(=O)c4ccccc4)CC[C@@H]23)C[C@@H](O)C[C@@H]1O (stereo in doubt; 3b) |  |  | > 1000 nM |
| C[C@H](CC[S+](=N)([O-])c1ccccc1)[C@H]1CC[C@H]2/C(=C/C=C3C[C@@H](O)C[C@H](O)C3)CCC[C@]12C (stereo in doubt; 3c) | 13 nM |  |  |
| C[C@H](CC[S+](=N)([O-])c1ccccc1)[C@H]1CC[C@H]2/C(=C/C=C3C[C@@H](O)C[C@H](O)C3)CCC[C@]12C (stereo in doubt; 3d) | 9.7 nM |  |  |

Now from value to compound:

| IC50 [1] | IC50 [2] | ED50 [3] | Compound |
| --- | --- | --- | --- |
| 75 nM |  |  | C=C1CC[C@H](O)C/C1=C/C=C1\CCC[C@]2(C)[C@@H]([C@H](C)CC[S+](=N)([O-])c3ccccc3)CC[C@@H]12 (stereo partly drawn) |
| 549 nM |  |  | C=C1/C(=C\C=C2/CCC[C@]3(C)[C@@H]([C@@H](C)/C=C/[S+](=N)([O-])c4ccccc4)CC[C@@H]23)C[C@@H](O)C[C@@H]1O (stereo partly drawn) |
| > 1000 nM |  |  | C=C1/C(=C\C=C2/CCC[C@]3(C)[C@@H]([C@H](C)/C=C/[S+](=N)([O-])c4ccccc4)CC[C@@H]23)C[C@@H](O)C[C@@H]1O (stereo partly drawn) |
| 7.4 nM | 554 nM |  | C=C1/C(=C\C=C2/CCC[C@]3(C)[C@@H]([C@H](C)CCS(=N)(=O)c4ccccc4)CC[C@@H]23)C[C@@H](O)C[C@@H]1O (stereo in doubt; 3a) [listing 1 of 2 here] |
| 20.5 nM |  |  | C=C1/C(=C\C=C2/CCC[C@]3(C)[C@@H]([C@H](C)CC4([S+](=N)([O-])c5ccccc5)CC4)CC[C@@H]23)C[C@@H](O)C[C@@H]1O (stereo in doubt; 3f) |
| 50 nM |  |  | C=C1/C(=C\C=C2/CCC[C@]3(C)[C@@H]([C@H](C)CC4([S+](=N)([O-])c5ccccc5)CC4)CC[C@@H]23)C[C@@H](O)C[C@@H]1O (stereo in doubt; 3g) |
| 44 nM |  |  | C=C1/C(=C\C=C2/CCC[C@]3(C)[C@@H]([C@H](C)CC[S+](=N)([O-])c4ccc(F)cc4)CC[C@@H]23)C[C@@H](O)C[C@@H]1O (stereo in doubt; 3i) |
